From patent US20130196984A1, “3-AMINO-5-PHENYL-56-DIHYDRO-2H-[1,4]OXAZINES” (Siena Biotech S.p.A., priority 2009, published 2013)
Where a name gives a salt, the structure may show the parent alone.

Tests used:
BACE2 [1] = target: T1, BACE2 (Homo sapiens, UniProt Q9Y5Z0); assay: Assay A: binding studies using SPR based methods, immobilised BACE2; conditions: CM5 chip, immobilised BACE2 enzyme ectodomain, acetate buffer pH 4.6, 4% DMSO
T1 construct: BACE2 enzyme ectodomain (derived from plasmid “pET17b-T7-hu proBACE2”); T7 (N); made in house
T1 sequence (Q9Y5Z0 63-473 limits assumed): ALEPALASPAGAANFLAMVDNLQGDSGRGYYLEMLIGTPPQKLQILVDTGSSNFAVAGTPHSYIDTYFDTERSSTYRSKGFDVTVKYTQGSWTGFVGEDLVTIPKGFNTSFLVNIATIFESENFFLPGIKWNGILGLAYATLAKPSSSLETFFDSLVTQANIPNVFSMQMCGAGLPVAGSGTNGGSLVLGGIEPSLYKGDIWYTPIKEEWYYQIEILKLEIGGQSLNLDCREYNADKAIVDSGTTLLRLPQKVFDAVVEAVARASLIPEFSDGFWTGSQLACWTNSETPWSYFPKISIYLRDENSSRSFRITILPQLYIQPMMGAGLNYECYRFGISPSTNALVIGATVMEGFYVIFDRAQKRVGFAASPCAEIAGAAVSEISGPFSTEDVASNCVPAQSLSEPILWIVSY

BACE2 [2] = target: T2, BACE2 (Rattus norvegicus, UniProt Q6IE75); assay: Assay for BACE inhibition by measuring cellular TMEM27 cleavage; type: cell-based; conditions: INS-TMEM27 (INS1e-derived) cells, ELISA of shed human TMEM27 in supernatant;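 note: inhibitor added 2 h before doxycycline-induced hTMEM27 expression, supernatant collected after further 46 h, endogenous BACE2 activity read as reduced TMEM27 shedding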
T2 construct: endogenous cellular BACE2 in the Ins1e rat cell line; endogenous in cells; host or cells: INS-TMEM27 (INS1e-derived rat cell line with doxycycline-inducible full-length hTMEM27)
T2 sequence (Q6IE75 63-514): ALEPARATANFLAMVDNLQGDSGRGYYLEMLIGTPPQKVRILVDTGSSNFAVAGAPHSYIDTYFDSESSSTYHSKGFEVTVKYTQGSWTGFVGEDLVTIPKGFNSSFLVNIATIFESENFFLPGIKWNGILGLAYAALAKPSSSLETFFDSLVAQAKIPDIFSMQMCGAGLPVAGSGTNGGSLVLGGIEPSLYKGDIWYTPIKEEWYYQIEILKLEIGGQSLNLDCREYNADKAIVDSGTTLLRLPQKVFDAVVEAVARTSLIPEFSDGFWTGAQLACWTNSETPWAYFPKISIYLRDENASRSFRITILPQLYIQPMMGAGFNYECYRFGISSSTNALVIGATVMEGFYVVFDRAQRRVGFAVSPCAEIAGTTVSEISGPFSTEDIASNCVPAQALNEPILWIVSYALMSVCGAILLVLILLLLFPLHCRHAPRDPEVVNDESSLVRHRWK

BACE1 [3] = target: T3, BACE1 (Homo sapiens, UniProt P56817); assay: Cellular Abeta-lowering assay; type: cell-based; design: endogenous in cells; host or cells: HEK293 stably transfected with human APP695 wt; conditions: HEK293 cells stably transfected with human APP wt (APP695), Aβ40 ELISA of supernatant after 18-20 hrs
T3 sequence (P56817 46-501): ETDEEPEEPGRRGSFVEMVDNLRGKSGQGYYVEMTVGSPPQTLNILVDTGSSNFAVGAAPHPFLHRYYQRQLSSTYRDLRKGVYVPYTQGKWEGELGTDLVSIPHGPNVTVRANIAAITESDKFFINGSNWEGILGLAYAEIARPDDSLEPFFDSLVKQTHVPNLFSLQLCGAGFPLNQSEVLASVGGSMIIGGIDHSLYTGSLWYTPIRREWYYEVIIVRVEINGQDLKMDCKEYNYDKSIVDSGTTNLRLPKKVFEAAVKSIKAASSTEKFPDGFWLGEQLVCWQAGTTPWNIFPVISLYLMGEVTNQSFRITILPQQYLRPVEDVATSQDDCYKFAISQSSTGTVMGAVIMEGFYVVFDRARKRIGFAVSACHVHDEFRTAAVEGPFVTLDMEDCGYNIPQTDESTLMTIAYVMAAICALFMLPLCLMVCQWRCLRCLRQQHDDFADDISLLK

BACE1 [4] = target: T3, BACE1; assay: Assay A: binding studies using SPR based methods, immobilised BACE1; design: 6his-tagged full length BACE 1 expressed in SF9 cells; 6His; made in house; host or cells: SF9 insect cells; conditions: CM5 chip, immobilised 6his-tagged full length BACE 1, acetate buffer pH 4.6, 4% DMSO;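 note: KD from a 1:1 kinetic fit (koff/kon) of real-time association and dissociation curves, or for fast binders from end-of-association equilibrium responses plotted against log concentration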

Row | Kd (BACE2 [1]) [nM] | IC50 (BACE2 [2]) [nM] | IC50 (BACE1 [3]) [nM] | Kd (BACE1 [4]) [nM] | SMILES
1 | 1220 | 910 | 620 | 3950 | C[C@@]1(c2cc(NC(=O)C3CC3(F)F)ccc2F)COCC(N)=N1 (mixture of isomers) [Example 53, (RS)-2,2-difluoro-cyclopropanecarboxylic acid [3-((R)-5-amino-3-methyl-3,6-dihydro-2H-[1,4]oxazin-3-yl)-4-fluoro-phenyl]-amide]
2 | 1720 | > 10000 | 1190 | 10800 | CC1(C)OCC(N)=N[C@]1(C)c1cc(NC(=O)C2CC2(F)F)ccc1F (mixture of isomers) [Example 56, (RS)-2,2-difluoro-cyclopropanecarboxylic [3-((R)-5-amino-2,2,3-trimethyl-3,6-dihydro-2H-[1,4]oxazin-3-yl)-4-fluoro-phenyl]-amide]
3 | 477 | 52 | 120 | 474 | CC(F)C(=O)Nc1ccc(F)c([C@]2(C)COCC(N)=N2)c1 (mixture of isomers) [Example 87, (RS)—N-[3-((R)-5-amino-3-methyl-3,6-dihydro-2H-[1,4]oxazin-3-yl)-4-fluoro-phenyl]-2-fluoro-propionamide formate]
4 | 44 | 21 |  |  | CC1(c2cccc(NC(=O)c3ncc(F)cc3F)c2)COCC(N)=N1 (racemic) [Example 1, (RS)-3,5-Difluoro-pyridine-2-carboxylic acid [3-(5-amino-3-methyl-3,6-dihydro-2H-[1,4]oxazin-3-yl)-phenyl]-amide]
5 | 9 | 48 | 16 | 50 | CC1(c2cccc(NC(=O)c3ncc(Cl)cc3Cl)c2)COCC(N)=N1 (racemic) [Example 2, (RS)-3,5-dichloro-pyridine-2-carboxylic acid [3-(5-amino-3-methyl-3,6-dihydro-2H-[1,4]oxazin-3-yl)-phenyl]-amide]
6 | 381 | 950 | 570 | 1720 | CC1(c2cccc(NC(=O)c3ccc(Cl)cc3Cl)c2)COCC(N)=N1 (racemic) [Example 4, (RS)—N-[3-(5-amino-3-methyl-3,6-dihydro-2H-[1,4]oxazin-3-yl)-phenyl]-2,4-dichloro-benzamide]
7 | 230 | 660 | 1530 | 6900 | CC1(c2cccc(NC(=O)c3cccc(Cl)c3)c2)COCC(N)=N1 (racemic) [Example 6, (RS)—N-[3-(5-amino-3-methyl-3,6-dihydro-2H-[1,4]oxazin-3-yl)-phenyl]-3-chloro-benzamide]
8 | 106 | 360 | 327 | 1490 | CC1(c2cccc(NC(=O)c3ccc(Cl)s3)c2)COCC(N)=N1 (racemic) [Example 8, (RS)-5-chloro-thiophene-2-carboxylic acid [3-(5-amino-3-methyl-3,6-dihydro-2H-[1,4]oxazin-3-yl)-phenyl]-amide]
9 | 63 | 43 | 58 | 717 | Cc1cc(C(=O)Nc2cccc(C3(C)COCC(N)=N3)c2)c(C)s1 (racemic) [Example 9, (RS)-2,5-dimethyl-thiophene-3-carboxylic acid [3-(5-amino-3-methyl-3,6-dihydro-2H-[1,4]oxazin-3-yl)-phenyl]-amide]
10 |  | 17 | 20 |  | Cc1nc(C(=O)Nc2cccc(C3(C)COCC(N)=N3)c2)co1 (racemic) [Example 12, (RS)-2-methyl-oxazole-4-carboxylic acid [3-(5-amino-3-methyl-3,6-dihydro-2H-[1,4]oxazin-3-yl)-phenyl]-amide]
11 | 33 | 51 | 24 | 445 | Cc1cc(C(=O)Nc2cccc(C3(C)COCC(N)=N3)c2)c(C)o1 (racemic) [Example 13, (RS)-2,5-dimethylfuran-3-carboxylic acid [3-(5-amino-3-methyl-3,6-dihydro-2H-[1,4]oxazin-3-yl)-phenyl]-amide]
12 | 8 | 6 |  |  | CC1(c2cc(NC(=O)c3ccc(Cl)cn3)ccc2F)COCC(N)=N1 (racemic) [Example 20, (RS)-5-chloro-pyridine-2-carboxylic acid [3-(5-amino-3-methyl-3,6-dihydro-2H-[1,4]oxazin-3-yl)-4-fluoro-phenyl]-amide]
13 |  | 2230 | 375 |  | CC1(c2cc(NC(=O)C(F)(F)C(F)(F)F)ccc2F)COCC(N)=N1 (racemic) [Example 26, (RS)—N-[3-(5-Amino-3-methyl-3,6-dihydro-2H-[1,4]oxazin-3-yl)-4-fluoro-phenyl]-2,2,3,3,3-pentafluoro-propionamide]
14 |  | 320 | 1130 |  | CC1(c2cc(NC(=S)c3ccc(Cl)cc3)ccc2F)COCC(N)=N1 (racemic) [Example 27, (RS)—N-[3-(5-Amino-3-methyl-3,6-dihydro-2H-[1,4]oxazin-3-yl)-4-fluoro-phenyl]-4-chloro-thiobenzamide]
15 | 1800 | 320 |  | > 10000 | CC1(c2cc(NC(=O)C3(C(F)(F)F)CC3)ccc2F)COCC(N)=N1 (racemic) [Example 57]
16 | 6500 |  | 500 | 885 | CC1(c2cc(NC(=O)c3cc(-c4cccs4)on3)ccc2F)COCC(N)=N1 (racemic) [Example 78, 5-thiophen-2-yl-isoxazole-3-carboxylic acid [3-((RS)-5-amino-3-methyl-3,6-dihydro-2H-[1,4]oxazin-3-yl)-4-fluoro-phenyl]-amide]
17 |  | 820 | 500 | 805 | C[C@@]1(c2cc(NC(=O)C(F)C(F)(F)F)ccc2F)COCC(N)=N1 (mixture of isomers) [Example 89, formate]
18 | 4 | 2 |  |  | C[C@@]1(c2cc(NC(=O)c3ccc(Cl)cn3)ccc2F)COCC(N)=N1 [Example 21, (R)-5-chloro-pyridine-2-carboxylic acid [3-(5-amino-3-methyl-3,6-dihydro-2H-[1,4]oxazin-3-yl)-4-fluoro-phenyl]-amide]
19 | 3 | 4 |  |  | C[C@@]1(c2cc(NC(=O)c3ncc(Cl)cc3Cl)ccc2F)COCC(N)=N1 [Example 34, 3,5-dichloro-pyridine-2-carboxylic acid [3-((R)-5-amino-3-methyl-3,6-dihydro-2H-[1,4]oxazin-3-yl)-4-fluoro-phenyl]-amide]
20 | 2550 |  | 190 | 208 | C[C@@]1(c2cc(NC(=O)c3ccc(C#N)cc3F)ccc2F)COCC(N)=N1 [Example 42, N-[3-((R)-5-amino-3-methyl-3,6-dihydro-2H-[1,4]oxazin-3-yl)-4-fluoro-phenyl]-4-cyano-2-fluoro-benzamide]
21 |  | 730 | 800 |  | Cc1nc(C(F)(F)F)c(C(=O)Nc2ccc(F)c([C@]3(C)COCC(N)=N3)c2)s1 [Example 47, 2-methyl-4-trifluoromethyl-thiazole-5-carboxylic acid [3-((R)-5-amino-3-methyl-3,6-dihydro-2H-[1,4]oxazin-3-yl)-4-fluoro-phenyl]-amide]
22 | 2300 | 46 |  | 6400 | CC1(C)OCC(N)=N[C@]1(C)c1cc(NC(=O)C2(C(F)(F)F)CC2)ccc1F [Example 55, 1-trifluoromethyl-cyclopropanecarboxylic acid [3-((R)-5-amino-2,2,3-trimethyl-3,6-dihydro-2H-[1,4]oxazin-3-yl)-4-fluoro-phenyl]-amide]
